Source: patent publication US20090181986A1, “SUBSTITUTED HETEROCYCLIC COMPOUNDS” (priority 2007, published 2009)

Target: hERG potassium channel (Homo sapiens, UniProt Q12809)
Assay: hERG screening assay (PatchXpress patch clamp, CHO cells)
Protocol: Compounds were screened to test their activity in blocking the hERG potassium channel. The hERG channel is heterologously expressed in a CHO (Chinese Hamster Ovary) cell line. Cells are maintained with standard tissue culture procedures and stable channel expression is maintained with 500 μg/ml G418 in the culture medium. Cells are harvested for testing on the PatchXpress automated patch clamp with Acctumax (Innovative Cell Technologies, San Diego, Calif.) to isolate single cells.
The following solutions are used for electrophysiological recordings. The external solution contains: 2 mM CaCl2; 2 mM MgCl2; 4 mM KCl; 150 mM NaCl; 10 mM Glucose; 10 mM HEPES (pH 7.4 with 1M NaOH, osmolarity).
hERG channels are activated when the voltage is stepped to +20 mV from the −80 mV holding potential (see FIG. 3). During a 5 second step at +20 mV, the channels activate and then largely inactivate, so the currents are relatively small. Upon returning to −50 mV from +20 mV, hERG currents transiently become much larger as inactivation is rapidly removed and then the channel closes. The first step to −50 mV for 300 ms is used as a baseline for measuring the peak amplitude during the step to −50 mV after channel activation. The peak current at −50 mV is measured both under control conditions and after addition of compound.
All compounds are prepared as 10 mM DMSO stocks in glass vials. Stock solutions are mixed by vigorous vortexing and sonication for about 2 minutes at room temperature. For testing, compounds are diluted in glass vials using an intermediate dilution step in pure DMSO and then further diluted to working concentrations in external solution. Dilutions are prepared no longer than 20 minutes before use.
After achieving the whole-cell configuration, cells are monitored for 90 seconds to assess stability and washed with external solution for 66 seconds. The voltage protocol described above is then applied to the cells every 12 seconds and throughout the whole procedure. Only cells with stable recording parameters and meeting specified health criteria are allowed to enter the compound addition procedure.
External solution containing 0.1% DMSO (vehicle) is applied to the cells first to establish the control peak current amplitude. After allowing the current to stabilize for 3 to 5 minutes, 1 μM and then 10 μM test compounds are applied. Each compound concentration is added 4 times and cells are kept in test solution until the effect of the compound reaches steady state or for a maximum of 12 minutes. […] Washout in the external solution compartment is performed until the recovery of the current reaches steady state. Data are analyzed using DataXpress, Clampfit (Molecular Devices, Inc., Sunnyvale) and Origin 7 (Originlab Corp.)

Chain of hERG potassium channel (Q12809 whole entry): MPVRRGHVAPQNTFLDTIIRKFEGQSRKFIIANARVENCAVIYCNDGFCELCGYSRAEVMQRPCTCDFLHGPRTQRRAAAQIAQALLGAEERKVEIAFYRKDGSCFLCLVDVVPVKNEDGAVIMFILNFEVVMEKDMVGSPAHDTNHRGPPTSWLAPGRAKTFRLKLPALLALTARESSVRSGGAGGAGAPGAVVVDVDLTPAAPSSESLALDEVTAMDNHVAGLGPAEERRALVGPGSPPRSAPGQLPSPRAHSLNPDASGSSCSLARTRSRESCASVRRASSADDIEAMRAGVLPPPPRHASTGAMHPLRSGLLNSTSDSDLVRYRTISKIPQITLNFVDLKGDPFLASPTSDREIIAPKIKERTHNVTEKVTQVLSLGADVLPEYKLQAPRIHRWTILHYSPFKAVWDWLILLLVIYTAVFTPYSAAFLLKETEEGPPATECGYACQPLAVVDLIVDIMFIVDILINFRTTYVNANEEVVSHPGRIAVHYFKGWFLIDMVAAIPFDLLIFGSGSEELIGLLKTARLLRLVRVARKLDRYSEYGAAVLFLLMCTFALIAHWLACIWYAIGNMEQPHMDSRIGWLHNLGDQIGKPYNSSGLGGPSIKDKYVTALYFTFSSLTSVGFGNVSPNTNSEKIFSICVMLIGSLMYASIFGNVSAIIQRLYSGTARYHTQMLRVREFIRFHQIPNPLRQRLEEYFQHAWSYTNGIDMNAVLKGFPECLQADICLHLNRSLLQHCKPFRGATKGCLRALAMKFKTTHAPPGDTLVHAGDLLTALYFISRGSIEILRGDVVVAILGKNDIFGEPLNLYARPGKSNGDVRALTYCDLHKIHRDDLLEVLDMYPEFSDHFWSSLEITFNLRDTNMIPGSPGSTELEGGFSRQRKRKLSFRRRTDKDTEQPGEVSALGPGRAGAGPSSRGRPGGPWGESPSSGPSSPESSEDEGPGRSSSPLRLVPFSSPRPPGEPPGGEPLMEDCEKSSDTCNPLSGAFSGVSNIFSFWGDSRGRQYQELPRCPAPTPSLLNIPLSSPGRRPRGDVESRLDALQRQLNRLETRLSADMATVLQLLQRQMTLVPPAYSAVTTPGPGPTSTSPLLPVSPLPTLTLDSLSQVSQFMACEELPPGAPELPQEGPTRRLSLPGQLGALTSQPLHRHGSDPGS

Row | SMILES | hERG Patch Clamp hERG % blk (1 μM test cmpd) [%] | hERG Patch Clamp hERG % blk (10 μM test cmpd) [%]
1 | CC1=C(C(=O)OCc2ccccc2)C(c2ccccc2-c2ccc(C(=O)O)cc2)C2=C(CCCC2=O)N1 (stereo not drawn) [PT-249, 2′-(3-(benzyloxycarbonyl)-2-methyl-5-oxo-1,4,5,6,7,8-hexahydroquinolin-4-yl)biphenyl-4-carboxylic acid] | 11.5 | 15.5
2 | CCOC(=O)C1=C(C)Nc2nnnn2C1c1ccccc1-n1ccnc1C.Cl (stereo not drawn) [PT-457, ethyl 5-methyl-7-(2-(2-methyl-1H-imidazol-1-yl)phenyl)-4,7-dihydrotetrazolo[1,5-a]pyrimidine-6-carboxylate hydrochloride] | 10 | 21
3 | CC1=C(C(=O)OCc2ccccc2)C(c2nccs2)n2nnnc2N1 (stereo not drawn) [PT-364, benzyl 5-methyl-7-(thiazol-2-yl)-4,7-dihydrotetrazolo[1,5-a]pyrimidine-6-carboxylate] | 10 | 17.5
4 | CCOC(=O)C1=C(C)NC2=C(C(=O)CCC2)C1c1cccc2ncccc12 (stereo not drawn) [PT-140, ethyl 2-methyl-5-oxo-1,4,5,6,7,8-hexahydro-4,5′-biquinoline-3-carboxylate] | 13.5 | 34.5
5 | CCOC(=O)C1=C(CC)Nc2nnnn2C1c1cccc2ccccc12 (stereo not drawn) [PT-010, ethyl 5-ethyl-7-(naphthalen-1-yl)-4,7-dihydrotetrazolo[1,5-a]pyrimidine-6-carboxylate] | 12.5 | 30
6 | COc1cc(Cl)ccc1COC(=O)C1=C(C)Nc2nnnn2C1c1c(C)cccc1C (stereo not drawn) [PT-307, 4-chloro-2-methoxybenzyl 7-(2,6-dimethylphenyl)-5-methyl-4,7-dihydrotetrazolo[1,5-a]pyrimidine-6-carboxylate] | 10 | 62.5
7 | CC1=C(C(=O)OCc2ccccc2)C(c2ccc3ccccc3c2)C2=C(CCCC2=O)N1 (stereo not drawn) [PT-320, benzyl 2-methyl-4-(naphthalen-2-yl)-5-oxo-1,4,5,6,7,8-hexahydroquinoline-3-carboxylate] | 10 | 10
8 | CC1=C(C(=O)OCc2ccccc2)C(c2ccccc2N2CCN(C)CC2)n2nnnc2N1 (stereo not drawn) [PT-340, benzyl 5-methyl-7-(2-(4-methylpiperazin-1-yl)phenyl)-4,7-dihydrotetrazolo[1,5-a]pyrimidine-6-carboxylate] | 57 | 93.5
9 | CC1=C(C(=O)OCc2ccccc2)C(c2ccccc2-c2cccc(NS(C)(=O)=O)c2)n2nnnc2N1 (stereo not drawn) [PT-348, benzyl 5-methyl-7-(3′-(methylsulfonamido)biphenyl-2-yl)-4,7-dihydrotetrazolo[1,5-a]pyrimidine-6-carboxylate] | 10 | 38.5
10 | CCOC(=O)C1=C(C)Nc2[nH]ncc2C1c1ccc(OC)cc1OCc1ccccc1 (stereo not drawn) [PT-445, ethyl 4-(2-(benzyloxy)-4-methoxyphenyl)-6-methyl-4,7-dihydro-1H-pyrazolo[3,4-b]pyridine-5-carboxylate] | 10.5 | 50
11 | CCOC(=O)C1=C(C)Nc2nnnn2C1c1sc2ccccc2c1C (stereo not drawn) [PT-018, ethyl 5-methyl-7-(3-methylbenzo[b]thiophen-2-yl)-4,7-dihydrotetrazolo[1,5-a]pyrimidine-6-carboxylate] | 14.5 | 36.5
12 | CCOC(=O)C1=C(C)Nc2nnnn2C1c1cccc(Oc2ccccc2)c1 (stereo not drawn) [PT-464, ethyl 5-methyl-7-(3-phenoxyphenyl)-4,7-dihydrotetrazolo[1,5-a]pyrimidine-6-carboxylate] | 11 | 55
13 | CC1=C(C(=O)OCc2ccccc2)C(c2cccc3c2OCO3)n2nnnc2N1 (stereo not drawn) [PT-034, benzyl 7-(benzo[d][1,3]dioxol-4-yl)-5-methyl-4,7-dihydrotetrazolo[1,5-a]pyrimidine-6-carboxylate] | 14.5 | 56
14 | CCOC(=O)C1=C(C)Nc2nnnn2C1c1cc2ccccc2o1 (stereo not drawn) [PT-019, ethyl 7-(benzofuran-2-yl)-5-methyl-4,7-dihydrotetrazolo[1,5-a]pyrimidine-6-carboxylate] | 10 | 26
15 | CC1=C(C(=O)OC(C)C)C(c2cccc3ccccc23)n2nnnc2N1 (stereo not drawn) [PT-021, isopropyl 5-methyl-7-(naphthalen-1-yl)-4,7-dihydrotetrazolo[1,5-a]pyrimidine-6-carboxylate] | 13 | 43.5
16 | COc1ccc2ccccc2c1C1C(C(=O)OCc2ccccc2)=C(C)Nc2nnnn21 (stereo not drawn) [PT-030, benzyl 7-(2-methoxynaphthalen-1-yl)-5-methyl-4,7-dihydrotetrazolo[1,5-a]pyrimidine-6-carboxylate] | 10.5 | 34.5
17 | CC1=C(C(=O)OCc2ccccc2)C(c2nccs2)n2nccc2N1 (stereo not drawn) [PT-363, benzyl 5-methyl-7-(thiazol-2-yl)-4,7-dihydropyrazolo[1,5-a]pyrimidine-6-carboxylate] | 10 | 19.5
18 | CCOC(=O)C1=C(C)Nc2nnnn2C1c1ccccc1-c1cccc(-c2nnn[nH]2)c1 (stereo not drawn) [PT-493, ethyl 7-(3′-(1H-tetrazol-5-yl)biphenyl-2-yl)-5-methyl-4,7-dihydrotetrazolo[1,5-a]pyrimidine-6-carboxylate] | 10 | 10
19 | CC1=C(C(=O)OCc2ccc(Cn3cccn3)cc2)C(c2cccs2)n2nnnc2N1 (stereo not drawn) [PT-280, 4-((1H-pyrazol-1-yl)methyl)benzyl 5-methyl-7-(thiophen-2-yl)-4,7-dihydrotetrazolo[1,5-a]pyrimidine-6-carboxylate] | 11.5 | 48
20 | CC1=C(C(=O)OC(c2ccccc2)C2CC2)C(c2cccc3ccccc23)n2nnnc2N1 (stereo not drawn) [PT-002, cyclopropyl(phenyl)methyl 5-methyl-7-(naphthalen-1-yl)-4,7-dihydrotetrazolo[1,5-a]pyrimidine-6-carboxylate] | 11.5 | 28
21 | CC1=C(C(=O)NCc2ccccc2)C(c2ccc3ccccc3c2)n2nnnc2N1 (stereo not drawn) [PT-068, N-benzyl-5-methyl-7-(naphthalen-2-yl)-4,7-dihydrotetrazolo[1,5-a]pyrimidine-6-carboxamide] | 14 | 22.5
